# Data reported in paper PMC8290231 (Cancer Medicine, 2021).
# Read-outs that look alike come from different tables or passages of the source.
# What was measured:
# [1] = test system: A204; experiment: CCK-8 cell proliferation assay; format: cell-based; conditions: Homo sapiens, read-out: antiproliferative IC50, A204
# Procedure: (§1) The base medium for MDA‐MB‐453 cell line is DMEM medium (CORNING, USA). All other cell lines were cultured in RPMI‐1640 medium supplemented with 10% FBS, 100 U/ml of penicillin, and […] of streptomycin in 5% CO2 at 37℃. The cells in the logarithmic growth phase were used for the experiments.
# (§2) Cells were seeded in 96‐well plate in complete medium (1000–6000 cells/well) and cultured for overnight. Then the cells were exposed to gradient concentrations (0.0005–10 μM) of compounds. Cell proliferation was analyzed by Cell Counting Kit 8 (CK04, Dojindo Laboratories, Japan) after co‐incubation for a further 72 h. IC50 values were calculated by fitting of concentration–response curves using GraphPad Prism 8.01 software. Each assay was repeated at least three times.
# (§3) The expression and activation levels of FGFR1–4 in these cells were determined via western blot experiments (Figure S1).
# [2] = test system: A549; experiment: CCK-8 cell proliferation assay; format: cell-based; conditions: Homo sapiens, A549, 72 h, read-out: antiproliferative IC50, A549
# Procedure: as §1, §2, §3
# [3] = test system: MKN‐1; experiment: CCK-8 cell proliferation assay; format: cell-based; conditions: Homo sapiens, read-out: antiproliferative IC50, MKN‐1
# Procedure: as §1, §2, §3
# [4] = test system: MDA‐MB‐231; experiment: CCK-8 cell proliferation assay; format: cell-based; conditions: Homo sapiens, MDA-MB-231, 72 h
# Procedure: as §1, §2, §3
# [5] = test system: RT112; experiment: CCK-8 cell proliferation assay; format: cell-based; conditions: Homo sapiens, read-out: antiproliferative IC50, RT112
# Procedure: as §1, §2, §3
# [6] = test system: H1581; experiment: CCK-8 cell proliferation assay; format: cell-based; conditions: Homo sapiens, read-out: antiproliferative IC50, H1581
# Procedure: as §1, §2, §3
# [7] = test system: MDA‐MB‐453; experiment: CCK-8 cell proliferation assay; format: cell-based; conditions: Homo sapiens, read-out: antiproliferative IC50, MDA‐MB‐453
# Procedure: as §1, §2, §3
# [8] = test system: KATOIII; experiment: CCK-8 cell proliferation assay; format: cell-based; conditions: Homo sapiens, KATO III, read-out: antiproliferative IC50, KATOIII
# Procedure: as §1, §2, §3
# [9] = test system: NCI‐H716; experiment: CCK-8 cell proliferation assay; format: cell-based; conditions: Homo sapiens, read-out: antiproliferative IC50, NCI‐H716
# Procedure: as §1, §2, §3
# [10] = test system: Ba/F3(+IL‐3); experiment: CCK-8 proliferation assay in parental Ba/F3 cells; format: cell-based; conditions: Mus musculus, read-out: IC50 (μΜ) Ba/F3(+IL‐3)
# Procedure: (§4) The Ba/F3 cell lines stably expressing FGFR1, FGFR1‐V561M, FGFR1‐V561F, FGFR1‐K656N, and FGFR1‐K656E were self‐established through electroporation pCDNA3.1‐TEL plasmids using the Amaxa Cell Line Nucleofector Kit V (Lonza, Cologne, Germany). Stable cell lines were selected by G418 (Merck, USA) and then withdrawal of IL‐3 (R&D). […] Parental Ba/F3 cells were maintained in RPMI 1640 supplemented with 10% FBS, 100 U/ml of penicillin, […] of streptomycin, and 10 ng/ml of IL‐3, while all Ba/F3 stable cell lines were cultured in the same medium without IL‐3.
# as §2
# (§5) There is, however, no commercially available FGFR1 mutant kinase to validate this. Therefore, we constructed Ba/F3 model cells stably expressing FGFR1‐WT, K656E, K656N, V561M, and V561F mutations.
# [11] = test system: FGFR1 WT; conditions: no reference given; cited from earlier work
# [12] = test system: SNU16; experiment: CCK-8 cell proliferation assay; format: cell-based; conditions: Homo sapiens, SNU-16, 72 h, read-out: antiproliferative IC50, SNU16
# Procedure: as §1, §2, §3
# [13] = test system: FGFR1‐V561M; conditions: no reference given; cited from earlier work
# [14] = test system: Ba/F3‐FGFR1‐K656N; experiment: CCK-8 proliferation assay in Ba/F3 stable cells; format: cell-based; conditions: Mus musculus, BaF3, 72 h, read-out: IC50 (μΜ) Ba/F3‐FGFR1‐K656N
# Procedure: as §4, §2, §5
# [15] = test system: Ba/F3‐FGFR1‐V561M; experiment: CCK-8 proliferation assay in Ba/F3 stable cells; format: cell-based
# Procedure: as §4, §2, §5
# [16] = test system: Ba/F3‐FGFR1‐K656E; experiment: CCK-8 proliferation assay in Ba/F3 stable cells; format: cell-based; conditions: Mus musculus, BaF3, 72 h, read-out: IC50 (μΜ) Ba/F3‐FGFR1‐K656E
# Procedure: as §4, §2, §5
# [17] = test system: Ba/F3‐FGFR1; experiment: CCK-8 proliferation assay in Ba/F3 stable cells; format: cell-based; conditions: Mus musculus, BaF3, 72 h, read-out: IC50 (μΜ) Ba/F3‐FGFR1
# Procedure: as §4, §2, §5
# [18] = test system: Ba/F3‐FGFR1‐V561F; experiment: CCK-8 proliferation assay in Ba/F3 stable cells; format: cell-based; conditions: Mus musculus, BaF3, 72 h, read-out: IC50 (μΜ) Ba/F3‐FGFR1‐V561F
# Procedure: as §4, §2, §5
# [19] = test system: Ba/F3‐FGFR1‐V561F; experiment: Apoptosis assay by flow cytometry (Annexin V / 7-AAD); format: cell-based; conditions: 1000 nM
# Procedure: After incubation, cells were collected and washed twice with pre‐cold PBS. About 6 × 10^5 cells were resuspended in 100 μl of 1× BD binding buffer solution (#556454, BD), and then stained with 7‐ADD (#559925, BD) and Annexin V‐PE (#556422, BD) in the dark for 15 min. Finally, 400 μl of 1×BD binding buffer solution were added to stop dyeing. The cells were then measured on a Guava easyCyte flow cytometer (Merck, USA).
# [20] = test system: Ba/F3‐FGFR1‐V561F; experiment: Cell cycle analysis by flow cytometry (propidium iodide); format: cell-based; conditions: 1000 nM
# Procedure: About 6 × 10^5 cells were re‐suspended in 150 μl of BD Cytofix/Cytoperm buffer solution I for 10 min at room temperature. The cell suspensions were added with BD Cytofix/Cytoperm buffer solution II and incubated with another 10 min at room temperature, and then incubated with 200 μl of propidium iodide buffer (0.1 mg/ml) in the dark for 10 min at 4℃. Assays were performed with a Guava easyCyte flow cytometer (Merck, USA).
smiles,measurement,setting,value
COCCNc1cc(NC(=O)N2CCCc3cc(CN4CCN(C)CC4=O)c(C=O)nc32)ncc1C#N [FGF401],IC50,"[1]; A204, FGFR1 amplification, CCK-8, 72 h",8250 ± 708 nM
same,IC50,"[2]; negative control, CCK-8, 72 h",> 10000 nM
same,IC50,"[3]; MKN-1, negative control, CCK-8, 72 h",> 10000 nM
same,IC50,"[4]; read-out: antiproliferative IC50, MDA‐MB‐231, negative control, CCK-8, 72 h",> 10000 nM
same,IC50,"[5]; RT-112, FGFR3‐TACC3, CCK-8, 72 h",> 10000 nM
same,IC50,"[6]; NCI-H1581, FGFR1 amplification, CCK-8, 72 h",> 10000 nM
same,IC50,"[7]; MDA-MB-453, FGFR4‐Y367C, CCK-8, 72 h",62.3 ± 27.7 nM
same,IC50,"[8]; FGFR2 amplification, CCK-8, 72 h",9380 ± 2860 nM
same,IC50,"[9]; NCI-H716, FGFR2 amplification, CCK-8, 72 h",> 10000 nM
CCN1C(=O)N(c2c(F)c(OC)cc(OC)c2F)Cc2cnc3[nH]c(CN4CCOCC4)cc3c21 [Pemigatinib],IC50,"[10]; BaF3, parental cells with IL-3, CCK-8, 72 h",8980 ± 1400 nM
Cc1ccc(C(=O)Nc2ccc(CN3CCN(C)CC3)c(C(F)(F)F)c2)cc1C#Cc1cnc2cccnn12 [Ponatinib],reported FGFR1 WT kinase inhibitory activity,[11],1.6
same,IC50,"[10]; BaF3, 72 h",2380 ± 420 nM
same,IC50,[12],78.2 ± 10.2 nM
same,IC50,"[1]; A204, 72 h",169 ± 134 nM
same,IC50,[2],990 ± 54.1 nM
same,IC50,"[3]; MKN-1, 72 h",758 ± 72 nM
same,IC50,"[4]; read-out: antiproliferative IC50, MDA‐MB‐231",701 ± 69.9 nM
same,IC50,"[5]; RT-112, 72 h",216 ± 8.2 nM
same,IC50,"[6]; NCI-H1581, 72 h",128 ± 19.1 nM
same,IC50,"[7]; MDA-MB-453, 72 h",707 ± 26.4 nM
same,IC50,[8]; 72 h,18.7 ± 0.8 nM
same,IC50,"[9]; NCI-H716, 72 h",26.4 ± 2.9 nM
same,reported FGFR1‐V561M kinase inhibitory activity,[13],18.6
same,IC50,[14],47 ± 8.8 nM
same,"fold increase of IC50 value, Ba/F3‐FGFR1‐V561M compared to Ba/F3‐FGFR1‐WT",[15],10 fold
same,IC50,"[15]; Mus musculus, BaF3, 72 h, read-out: IC50 (μΜ) Ba/F3‐FGFR1‐V561M",400 ± 11 nM
same,IC50,[16],88 ± 28 nM
same,IC50,[17],33 ± 2.8 nM
same,IC50,[18],56 ± 9 nM
C=CC(=O)N1CC[C@H](n2nc(C#Cc3cc(OC)cc(OC)c3)c3c(N)ncnc32)C1 [TAS120],effect on apoptosis,[19],weak effect
same,effect on cell cycle,[20],weak effect
